SMILES strings stand for the structures.

Sequence of RORγt (P51449 other isoform, or with tags, fused parts or gaps, species assumed): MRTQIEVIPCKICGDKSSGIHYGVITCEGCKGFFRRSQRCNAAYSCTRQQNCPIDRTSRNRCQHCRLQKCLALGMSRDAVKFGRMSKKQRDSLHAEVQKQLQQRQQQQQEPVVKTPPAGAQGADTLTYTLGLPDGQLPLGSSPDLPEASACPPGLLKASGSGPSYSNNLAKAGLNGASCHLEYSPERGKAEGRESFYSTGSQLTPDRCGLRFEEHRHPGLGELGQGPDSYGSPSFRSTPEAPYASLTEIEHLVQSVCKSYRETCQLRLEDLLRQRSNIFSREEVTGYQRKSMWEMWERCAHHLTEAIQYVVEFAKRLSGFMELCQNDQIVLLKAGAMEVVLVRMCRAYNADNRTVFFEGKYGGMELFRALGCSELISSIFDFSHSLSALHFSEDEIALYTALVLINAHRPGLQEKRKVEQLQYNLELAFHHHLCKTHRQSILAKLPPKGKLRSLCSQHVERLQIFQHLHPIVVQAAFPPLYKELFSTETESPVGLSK

The test addresses RORγt (Homo sapiens (Human), UniProt P51449). As to the kind of experiment: RORγt luciferase reporter assay in CHO-K1 cells (RORgamma inhibitory activity). Particulars: CHO-K1 cells stably transfected with RORγt, transiently transfected with pFR Luc; 18-20 hours treatment; luminescence; read-out: In-vitro IC50 value IC50. It is filed as cell-based. A general note: Reporter assays use an easily measured gene product as a stand-in for the process of interest.
Method: The representative compounds are referred to as the test compounds.
CHO-K1 cells stably transfected with RORγt are maintained in MEM-EBS with 5% FBS, 1% penicillin streptomycin solution and 1 mg/mL G418. The cells are seeded at a density of 200000 cells/mL in white 96 well flat bottom plate. Post 16-18 hours incubation, the cells are transiently transfected with pFR Luc (50 ng/well DNA) for four hours. The cells are then treated with different doses of the test compounds in MEM EBS media with 10% FBS and 1% penicillin streptomycin. DMSO is used as vehicle control. After 18-20 hours treatment, the cells are lysed with lysis buffer (40 mM HEPES, 20 mM EGTA, 50 mM β-glycerophosphate, 10% glycerol and 1% Triton X-100 in distilled water) for 0.5 hour and luminescence is read using Tecan Safire reader at 1000 milli second integration time.
As usually defined, the IC50 is the midpoint of a concentration-inhibition curve. For `CCS(=O)(=O)c1ccc(CC(=O)Nc2ccc(OC3CCCCC3)c(C(F)(F)F)c2)cc1` [Example 23, N-(4-(Cyclohexyloxy)-3-(trifluoromethyl)phenyl)-2-(4-(ethylsulfonyl)phenyl)acetamide], the IC50 lay within 50 to 100 nM.
Regarding `CCS(=O)(=O)c1ccc(CC(=O)Nc2ccc(C3=CCC(=O)CC3)c(C(F)(F)F)c2)cc1` [Example 24, 2-(4-(Ethylsulfonyl)phenyl)-N-(4′-oxo-2-(trifluoromethyl)-2′,3′,4′,5′-tetrahydro-[1,1′-biphenyl]-4-yl)acetamide], the IC50 fell in the range of 0.01 to 50 nM.
For `CCS(=O)(=O)c1ccc(CC(=O)Nc2ccc(C3CCCCC3)cc2)cc1` [Example 25, N-(4-Cyclohexylphenyl)-2-(4-(ethylsulfonyl)phenyl)acetamide], the half-maximal inhibitory concentration (IC50) lay in the range of 0.01 to 50 nM.
`CCS(=O)(=O)c1ccc(CC(=O)Nc2ccc(C3=CCC(O)CC3)c(C(F)(F)F)c2)cc1` (centres unmarked) [Example 34, 2-(4-(Ethylsulfonyl)phenyl)-N-(4′-hydroxy-2-(trifluoromethyl)-2′,3′,4′,5′-tetrahydro-[1,1′-biphenyl]-4-yl)acetamide]: the half-maximal inhibitory concentration (IC50) was in the range of 0.01 to 50 nM.
With `CCS(=O)(=O)c1ccc(CC(=O)Nc2ccc3c(c2)CCCC3(O)c2ccc(OC)cc2)cc1` (centres unmarked) [Example 43, 2-(4-(Ethylsulfonyl)phenyl)-N-(5-hydroxy-5-(4-methoxyphenyl)-5,6,7,8-tetrahydronaphthalen-2-yl)acetamide], the IC50 lay within 0.01 to 50 nM.

(Values after patent publication US11084784B2, “ROR-gamma modulators and uses thereof” (PIRAMAL ENTERPRISES LIMITED, priority 2014, dated 2021).)
